Converted amounts (≈) assume the structure as drawn. Like-named read-outs stand apart in the source and are kept apart here.
Assays:
Assay type in all cases: cell-based, Pseudomonas aeruginosa
P. aeruginosa PA14 = assay: Single-cell swimming kinematics (ASK software, phase contrast video microscopy) upon antibiotic exposure; conditions: for change in swimming speed compared to antibiotic-free control: FIG. 12
[1] = system: clinical isolate P. aeruginosa 9/53; assay: MIC by broth microdilution assay
[2] = system: susceptible clinical isolate of P. aeruginosa (PSA 9/53); assay: Single-cell swimming speed (ASK software) relative to antibiotic-free control; conditions: ciprofloxacin 4 μg/ml, meropenem 0.5 μg/ml, gentamicin 8 μg/ml; FIG. 17
Text: The swimming speed (y axis) was normalized by the speed in the control (which thus becomes the dashed line at 1).

P. aeruginosa ATCC 27853 = assay: MIC by broth microdilution assay

| Compound | change in swimming speed compared to antibiotic-free control (P. aeruginosa PA14; 0.1 μg/ml) | decrease of mean swimming speed compared to the antibiotic-free control (P. aeruginosa PA14; 1 μg/ml, after 30 min) [%] | mean swimming speed of exposed cells (P. aeruginosa PA14; 1 μg/ml, after 30 min) [μm/s] | decrease of mean swimming speed compared to the antibiotic-free control (P. aeruginosa PA14; 1 μg/ml, after 50 min) [%] | mean swimming speed of exposed cells (P. aeruginosa PA14; 1 μg/ml, after 50 min) [μm/s] | decrease of mean swimming speed compared to the antibiotic-free control (P. aeruginosa PA14; 1 μg/ml, after 70 min) [%] | mean swimming speed of exposed cells (P. aeruginosa PA14; 1 μg/ml, after 70 min) [μm/s] | MIC ([1]; Pseudomonas aeruginosa, read-out: MIC) [µg/mL] | sensitivity of motility (swimming speed) to the antibiotic [2] | MIC [1] [µg/mL] | MIC (P. aeruginosa ATCC 27853) [µg/mL] | change in swimming speed compared to antibiotic-free control (P. aeruginosa PA14; 1 μg/ml) | change in swimming speed compared to antibiotic-free control (P. aeruginosa PA14; 10 μg/ml) |
| --- | --- | --- | --- | --- | --- | --- | --- | --- | --- | --- | --- | --- | --- |
| CC(C)(O/N=C(\C(=O)N[C@@H]1C(=O)N2C(C(=O)[O-])=C(C[n+]3ccccc3)CS[C@H]12)c1csc(N)n1)C(=O)O [ceftazidime] | no significant changes | 14 | 42.6 | 23 | 35.4 | 33 | 31.2 | – | – | – | – | – | – |
| C[C@@H](O)[C@H]1C(=O)N2C(C(=O)O)=C(S[C@@H]3CN[C@H](C(=O)N(C)C)C3)[C@H](C)[C@H]12 [meropenem] | – | – | – | – | – | – | – | 0.5 (≈ 1.3 µM) | less so | – | – | – | – |
| gentamicin | not | – | – | – | – | – | – | – | very sensitive | 1 | 1 | not | significantly reduced |
